Results: patent US20110293676A1, “Oral Cephalotaxine Dosage Forms” (ChemGenex Pharmaceuticals, Inc., priority 2007, published 2011)

Legend:
[1] = Observation for mortality, morbidity and adverse events in the mouse pharmacokinetic study; type: in vivo, male CD-1 mice; details: single dose 0.41 or 1.6 mg/kg p.o. or s.c., observed until 7 days after last blood collection
Description: Animals were observed twice daily (in the morning and in the evening) for mortality and morbidity beginning at the time of arrival from the vendor until the scheduled sacrifice 7 days after the last blood collection. Prior to dosing, each animal was removed from its cage and observed for signs of poor health and abnormal behavior. All animals were weighed prior to dosing.
No unscheduled sacrifices or deaths were recorded. Animals were sacrificed via CO2 7 days after the completion of blood draws.

[2] = Pharmacokinetic study of homoharringtonine in mice, oral vs subcutaneous, plasma HHT content; type: in vivo, male CD-1 mice; design: Tmax / t-½: unit not given here; details: for Concentration of HHT in mouse sodium heparin plasma: single dose; for BA po/sc % / Cmax / Tmax / AUC / t-½: mouse; for AUC / t-½: WINNONLIN NCA model
Description: To evaluate the potential for the development of an oral formulation of homoharringtonine, a pharmacokinetic study was performed in mice. Homoharringtonine was given, at 2 doses, by either oral or subcutaneous routes to male CD-1 mice. After a single administration, blood was collected from the tail vein and analyzed for homoharringtonine content. The animal dosing was performed by Murigenics (Berkeley, Calif.) and the analysis of sera was performed by PHARMout (Sunnyvale, Calif.). […] This bioavailability is considered very good.
Homoharringtonine was manufactured by Stragen for ChemGenex Pharmaceuticals. 5 mg of lyophilized homoharringtonine was provided in a glass vial and was stable at room temperature. The vehicle was 0.9% sodium chloride supplied with the test agent in a separate vial. 27 male CD-1 mice, 8-10 weeks old (Charles River Laboratories) were used for this study. 24 mice were used for dosing, and 3 mice were used as naïve controls.
On the day of the study, 5 ml of saline were added to the 5 mg vial to make a stock of 1 mg/ml HHT. The amount administered for each mouse was based on weight, using a dose volume of 4 ml/kg. The dosing administration was performed according to Table 1.
Test subjects were dosed once. The enzyme blocker was provided in two separate tubes (A & B) Immediately prior to blood collection, 20 μL each of A and B were aliquoted into a small tube (to yield 40 μL of enzyme inhibitor).
Blood from 3 naïve mice was collected for a 0 timepoint. Approximately 50 μL of whole blood per animal (n=3 mice per time point) was collected into heparinized capillary tubes. Heparanized blood was transferred into tubes containing 40 μL of enzyme inhibitor. Samples were clearly marked by PK timepoint and group. Blood was stored on ice until centrifugation. There were 6 mice treated at each dose, but blood was pooled from 3 mice per time point so that each mouse had blood collected at every other timepoint. There were the following timepoints: 0, 15 min, 30 min, 2 hr, 4 hr and 8 hr after the administration of homoharringtonine. There were three samples collected for the T=0 from naïve mice. There were 5 samples collected for each dose, corresponding to the timepoints, 15 min, 30 min, 2 hr, 4 hr and 8 hr after the administration of homoharrigntonine. There were 2 doses for each route, and 2 routes of administration, so there were a total of 20 samples collected from treated mice. Plasma tubes were spun to prepare plasma, frozen to −80° C. and shipped on dry ice to PHARMout for bioanalytical work up.
The Cmax of the oral doses was 4 and 30 ng/mL for the 410 and 1600 μg/kg oral doses, respectively.

With COC(=O)C[C@](O)(CCCC(C)(C)O)C(=O)O[C@@H]1C(OC)=C[C@]23CCCN2CCc2cc4c(cc2[C@H]13)OCO4 [HHT, cephalotaxine, 4-methyl-2-hydroxy-2-(4-hydroxy-4-methylpentyl) butanediocate ester] as the molecule, how does the mortality and morbidity [1] read?
The mortality and morbidity was “No mortalities or signs of morbidity were observed”.

What about the “Concentration of HHT in mouse sodium heparin plasma” value (shortened to “Concentration of HHT”) ([2]; Group 1: 0.41 mg/kg p.o., 15 min) of the same molecule?
Its value is 3.54 ng/mL.

And the “Concentration of HHT” value ([2]; Group 1: 0.41 mg/kg p.o., 30 min)?
The value was 3.59 ng/mL.

What about the “Concentration of HHT” value ([2]; Group 1: 0.41 mg/kg p.o., 60 min) of the same molecule?
Its value is 3.85 ng/mL.

What about the “Concentration of HHT” value ([2]; Group 1: 0.41 mg/kg p.o., 120 min) of the same molecule?
The value was 4.29 ng/mL.

And the “Concentration of HHT” value ([2]; Group 1: 0.41 mg/kg p.o., 240 min)?
Its value is 1.81 ng/mL.

And the “Concentration of HHT” value ([2]; Group 1: 0.41 mg/kg p.o., 480 min)?
The value was 1.65 ng/mL.

And the “Concentration of HHT” value ([2]; Group 2: 0.41 mg/kg s.c., 15 min)?
Its value is 20.4 ng/mL.

What about the “Concentration of HHT” value ([2]; Group 2: 0.41 mg/kg s.c., 30 min) of the same molecule?
Its value is 11.2 ng/mL.

And the “Concentration of HHT” value ([2]; Group 2: 0.41 mg/kg s.c., 60 min)?
Its value is 6.20 ng/mL.

What about the “Concentration of HHT” value ([2]; Group 2: 0.41 mg/kg s.c., 120 min) of the same molecule?
Its value is 3.59 ng/mL.

And the “Concentration of HHT” value ([2]; Group 2: 0.41 mg/kg s.c., 240 min)?
The value was 2.44 ng/mL.

And the “Concentration of HHT” value ([2]; Group 2: 0.41 mg/kg s.c., 480 min)?
Its value is “BQL (Below the quantification limit (1.00 ng/mL))”.

What about the “Concentration of HHT” value ([2]; Group 3: 1.6 mg/kg p.o., 15 min) of the same molecule?
Its value is 6.58 ng/mL.

And the “Concentration of HHT” value ([2]; Group 3: 1.6 mg/kg p.o., 30 min)?
Its value is 8.87 ng/mL.

And the “Concentration of HHT” value ([2]; Group 3: 1.6 mg/kg p.o., 60 min)?
Its value is 29.9 ng/mL.

And the “Concentration of HHT” value ([2]; Group 3: 1.6 mg/kg p.o., 120 min)?
The value was 9.18 ng/mL.

What about the “Concentration of HHT” value ([2]; Group 3: 1.6 mg/kg p.o., 240 min) of the same molecule?
Its value is 5.52 ng/mL.

What about the “Concentration of HHT” value ([2]; Group 3: 1.6 mg/kg p.o., 480 min) of the same molecule?
The value was 4.19 ng/mL.

And the “Concentration of HHT” value ([2]; Group 4: 1.6 mg/kg s.c., 15 min)?
Its value is 54.4 ng/mL.

And the “Concentration of HHT” value ([2]; Group 4: 1.6 mg/kg s.c., 30 min)?
Its value is 15.4 ng/mL.

And the “Concentration of HHT” value ([2]; Group 4: 1.6 mg/kg s.c., 60 min)?
Its value is 35.3 ng/mL.

And the “Concentration of HHT” value ([2]; Group 4: 1.6 mg/kg s.c., 120 min)?
The value was 6.38 ng/mL.

What about the “Concentration of HHT” value ([2]; Group 4: 1.6 mg/kg s.c., 240 min) of the same molecule?
The value was 7.72 ng/mL.

And the “Concentration of HHT” value ([2]; Group 4: 1.6 mg/kg s.c., 480 min)?
Its value is 3.10 ng/mL.

And the BA po/sc % ([2]; 410 ug/kg, oral compared with subcutaneous dosing)?
Its BA po/sc % is 76%.

And the BA po/sc % ([2]; 1600 ug/kg, oral based on the subcutaneous dose)?
Its BA po/sc % is 77%.

What about the Cmax ([2]; po, 410 ug/kg (1.2 mg/m2)) of the same molecule?
The Cmax was 4 ng/mL.

And the Tmax ([2]; po, 410 ug/kg (1.2 mg/m2))?
Its Tmax is 120.

What about the AUC ([2]; po, 410 ug/kg (1.2 mg/m2)) of the same molecule?
Its AUC is 1217 ng·min/mL.

And the t-½ ([2]; po, 410 ug/kg (1.2 mg/m2))?
Its t-½ is 297.

And the Cmax ([2]; po, 1600 ug/kg (4.8 mg/m2))?
The Cmax was 30 ng/mL.

What about the Tmax ([2]; po, 1600 ug/kg (4.8 mg/m2)) of the same molecule?
The Tmax was 60.

And the AUC ([2]; po, 1600 ug/kg (4.8 mg/m2))?
Its AUC is 3966 ng·min/mL.

And the t-½ ([2]; po, 1600 ug/kg (4.8 mg/m2))?
The t-½ was 341.

And the Cmax ([2]; sc, 410 ug/kg (1.2 mg/m2))?
The Cmax was 20 ng/mL.

What about the Tmax ([2]; sc, 410 ug/kg (1.2 mg/m2)) of the same molecule?
Its Tmax is 15.

What about the AUC ([2]; sc, 410 ug/kg (1.2 mg/m2)) of the same molecule?
The AUC was 1599 ng·min/mL.

And the t-½ ([2]; sc, 410 ug/kg (1.2 mg/m2))?
Its t-½ is 215.

And the Cmax ([2]; sc, 1600 ug/kg (4.8 mg/m2))?
Its Cmax is 54 ng/mL.

What about the Tmax ([2]; sc, 1600 ug/kg (4.8 mg/m2)) of the same molecule?
The Tmax was 15.

And the AUC ([2]; sc, 1600 ug/kg (4.8 mg/m2))?
The AUC was 5087 ng·min/mL.

What about the t-½ ([2]; sc, 1600 ug/kg (4.8 mg/m2)) of the same molecule?
Its t-½ is 306.
